According to US5869699A, “1,2 chemiluminescent dioxetanes of improved performance” (Tropix, Inc., priority 1997, dated 1999):
Structures can show the parent of a compound that is named as a salt.

Assays:
[1] = tested on: Alkaline phosphatase; assay: Chemiluminescence half-life of dephosphorylated dioxetane; format: biochemical; settings: for T1/2 (chemiluminescence half-life): 0.004 mM dioxetane, 30° C., 0.1M diethanolamine, 1 mM MgCl2, pH 10, alkaline phosphatase 1.05×10^-9 M, no enhancer; for t1/2 (chemiluminescence half-life): in a buffer solution; for T1/2 (chemiluminescence half-life), with Sapphire II enhancer: Sapphire II enhancer: 0.1M diethanolamine, 1 mM MgCl2, 10% polyvinylbenzyltributyl ammonium chloride at 1 mg/mL
Procedure: Determination of the Chemiluminescence Half-Life of Dephosphorylated Dioxetane.
A 1 mL aliquot of each dioxetane (0.004 mM) was equilibrated to 30° C. in 0.1M diethanolamine, 1 mM MgCl2, pH 10. Alkaline phosphatase (at final concentration of 1.05×10^-9 M) was added to the test tube and the chemiluminescent signal kinetics was measured in a Turner TD-20E luminometer for 10 to 20 minutes. The half-life was calculated from the plot of log RLU versus time. For TFE and TFE-ADP-Star, the chemiluminescent half-life was also determined in the presence of Sapphire II enhancer (in 0.1M diethanolamine, 1 mM MgCl2, 10% polyvinylbenzyltributyl ammonium chloride at 1 mg/mL).

[2] = tested on: Alkaline phosphatase; assay: Peak light intensity of dephosphorylated dioxetanes; format: biochemical; settings: for PEAK INTENSITY: 0.004 mM dioxetane, 30° C., 0.1M diethanolamine, 1 mM MgCl2, pH 10, alkaline phosphatase 1.05×10^-9 M
Procedure: Determination of the Peak Light Intensity of Dephosphorylated Dioxetanes
A 0.5 mL aliquot of dioxetane (0.004 mM) was equilibrated to 30° C. in 0.1M diethanolamine, 1 mM MgCl2, pH 10. Alkaline phosphatase (final concentration of 1.05×10^-9 M) was added to the tube and the chemiluminescent signal was measured in a Turner TD-20E luminometer for 10 to 20 minutes.

[3] = tested on: biotinylated pBR322(35 mer); assay: Detection of biotinylated pBR322 (35 mer) on nylon membrane; settings: for DNA CONC. (detection sensitivity): 5 minute exposure, 0.25 mM dioxetane, nylon membrane, pH 9.5 for CSPD and TFE, pH 9.0 for CDP-Star and TFE-ADP-Star
From the text: Detection of Biotinylated pBR322(35 mer) on Nylon Membrane
Serial dilutions of biotinylated pBR322 (35 mer) were spotted onto strips of Tropilon-Plus nylon membrane. Spots correspond to 210 pg, 70 pg, 23.3 pg, 7.7 pg, 2.6 pg, 0.86 pg, 0.29 pg, 0.10 pg, 32.0 fg, 10.7 fg, 3.6 fg and 1.2 fg of biotinylated pBR322(35 mer). After spotting, the DNA was cross-linked to the membrane by UV fixation, the membranes were blocked with 0.2% I-Block, 5% sodium dodecyl sulfate (SDS) in phosphate buffered saline(PBS) (Blocking Buffer I), incubated with a 1-5000 dilution of Avidx-AP in Blocking Buffer I for 30 minutes, washed twice with 5% SDS in PBS for 5 minutes, rinsed twice with Assay Buffer, incubated for 5 minutes in 0.25 mM dioxetane phosphate in Assay Buffer and exposed to X-ray film for 5 minutes. The membrane strips incubated with CSPD, and TFE were rinsed with 0.1M diethanolamine, 1 mM MgCl2, pH 9.5 and those incubated with CDP-Star, and TFE-ADP-Star were rinsed with the same buffer at pH 9.0. The Assay Buffer for CSPD and TFE was 0.1M diethanolamine, 1 mM MgCl2, pH 9.5 and for CD-Star, and TFE-ADP-Star was the same buffer at pH 9.0.

[4] = tested on: Alkaline phosphatase; assay: Enzymatic triggering of the prepared dioxetane with alkaline phosphatase to produce light; format: biochemical
Procedure: 480 milligrams of chromatographed disodium 2-chloro-5-(2,2,2-trifluoroethoxy tricyclo[3.3.1.1^3,7 ]dec-2-ylidenemethyl)phenyl phosphate was placed in a tube and wet down with anhydrous methanol, 4 mL. Chloroform, 40 mL, was added to obtain a solution. A solution of tetraphenylporphine (TPP), 6 milligrams in 3 mL chloroform, was then added to yield a pink-purple reaction mixture. The solution was cooled in an ice bath while sparging with oxygen through a Pasteur pipette for 5 minutes. The gas flow was continued while the solution was irradiated with a 400 watt sodium vapor lamp which had been filtered with a 3.0 mil thickness of DuPont Kapton film. After 40 minutes, a small sample was blown down and dissolved in water which contained 0.1% NaHCO3. Analytical HPLC, under conditions described above for the starting material, indicated a new product which eluted at 12.1 minutes. The starting material, eluting at 12.5 minutes, was present in just a trace amount. The reaction was stripped of solvents and pumped to yield a dark red foam. This was dissolved in 80 mL water which contained 5 drops of 0.5M NaOH. The solution was filtered to remove insolubles, and was preparatively chromatographed on a one inch PLRP-S column (Polymer Laboratories) using an acetonitrile/water gradient. The product peak was shaved on the front and in the back, collecting only the middle cut. […]

[5] = nylon membrane blotting, TABLE III

Row | SMILES | T1/2 (chemiluminescence half-life) [1] | PEAK INTENSITY [2] | DNA CONC. (detection sensitivity) [3] | also measured
1 | COC1(c2ccc(Cl)c(OP(=O)(O)O)c2)OOC12C1CC3CC(C1)CC2C3 (stereo not shown) [ADP-Star] | 2.7 min | 682 RLU | – | –
2 | COC1(c2cccc(OP(=O)(O)O)c2)OOC12C1CC3CC(C1)CC2C3 (stereo not shown) [AMPPD, 3-(2'-spiroadamantane)-4-methoxy-4-(3"-phosphoryloxy)-phenyl-1,2-dioxetanedisodium salt] | – | – | – | t1/2 (chemiluminescence half-life) [1]: 2.1 min
3 | COC1(c2ccc(Cl)c(OP(=O)(O)O)c2)OOC12C1CC3CC2CC(Cl)(C3)C1 (stereo not shown) [CDP-Star] | 1.2 min | 863 RLU | 0.86 PICOGRAMS | –
4 | COC1(c2cccc(OP(=O)(O)O)c2)OOC12C1CC3CC2CC(Cl)(C3)C1 (stereo not shown) [CSPD] | 0.6 min | 200 RLU | 23.3 PICOGRAMS | half-life compared with TFE ([1]; by itself in a buffer): shorter than TFE
5 | O=P(O)(O)Oc1cc(C2(OCC(F)(F)F)OOC23C2CC4CC(C2)CC3C4)ccc1Cl (stereo not shown) [TFE-ADP-Star, Disodium 2-chloro-5-(4-(2,2,2-trifluoroethoxy)spiro{1,2-dioxetane-3,2'-tricyclo[3.3.1.1^3,7]decan}-4-yl-phenyl phosphate] | 2.0 min | 390 RLU | 0.0107 PICOGRAMS | light production on enzymatic triggering with alkaline phosphatase [4]: produce light; amount of DNA detected relative to TFE [3, 5]: close to one thousand times less DNA than TFE; sensitivity compared with CDP-Star [3, 5]: more sensitive than CDP-Star; T1/2 (chemiluminescence half-life), with Sapphire II enhancer [1]: 5.0 min; chemiluminescent signal intensity / relative emission efficiency ([2]; comment on TABLE II): generates a higher intensity signal
6 | O=P([O-])([O-])Oc1cccc(C2(OCC(F)(F)F)OOC23C2CC4CC3CC(Cl)(C4)C2)c1.[Na+].[Na+] (stereo not shown) [TFE-CDP-Star, Disodium 3-(4-(2,2,2-trifluoroethoxy)spiro{1,2-dioxetane-3,2'-(5'-chloro)tricyclo [3.3.1,1^3,7]decan}-4-yl)phenyl phosphate] | – | – | – | duration of burst of light on addition of excess alkaline phosphatase ([4]; HPLC peak of basified reaction sample, pH 10 aqueous diethanolamine buffer, excess alkaline phosphatase): 3 min
7 | O=P(O)(O)Oc1cccc(C2(OCC(F)(F)F)OOC23C2CC4CC(C2)CC3C4)c1 (stereo not shown) [TFE] | 0.9 min | 282 RLU | 7.7 PICOGRAMS | T1/2 (chemiluminescence half-life), with Sapphire II enhancer [1]: 15.5 min; t1/2 (chemiluminescence half-life) [1]: 0.9 min; t1/2 in the presence of enhancers ([1]; in the presence of enhancers): 15 min
